Consider eight compounds from US5759768A, “Assays for factors affecting circularization of DNA, assays for factors affecting DNA integration, factors, and uses thereof” (priority 1995, dated 1998).

Common to all, as to assay type: biochemical, HIV-1
Assay [1] has as its system viral DNA integrated into .phi.X174 target DNA. The following applies: for inhibition of integration: 90 min incubation. Here is the method: (§1) The chronically HIV-1 infected Molt IIIB human T cell line (HTLV IIIB virus strain) was the source of virus for cell-free infections. This human T cell line constitutively produces a low level of the HTLV-111B strain of HIV-1. Culture supernatant containing a high concentration of virus was prepared by incubating 300×10^6 Molt IIIB cells in 50 ml fresh RPMI 1640 medium containing 20% fetal calf serum and 10 ng of phorbol 12-myristate 13-acetate per ml for 20-24 hours. […] Cytoplasmic extracts (3 ml) were prepared 4-4.5 hours post-infection, by a modification of the procedure of Brown et al., Cell 49: 342-356 (1987).
(§2) At specified times after infection, cells were washed twice with buffer K (20 mM Hepes, pH 7.4, 150 mM KCl, 5 mM MgCl2, 1 mM dithiothreitol, […]) and then lysed at a concentration of 33×10^6 cells per ml in the same buffer containing 0.025% digitonin or 0.025% Triton X-100. Cells were extracted for 10 minutes at room temperature, and the lysate was centrifuged at 1000×g for 3 minutes, and is referred to as "cytoplasmic extract". Cytoplasmic extract was the source of viral DNA for analyses in the assays described below. The pellet from the initial low-speed centrifugation contained cell debris and intact nuclei and is called the "nuclear pellet". Cell extracts from uninfected SupT1 cells were prepared in the same manner.
(§3) DNA samples were layered on 0.8% agarose gels and electrophoresed at 1 V/cm for 15 hour in Tris/acetate/EDTA buffer. After electrophoresis, DNA was blotted by capillary action onto nitrocellulose (0.45 μm, Schleicher & Schuell).
In Vitro Integration Reaction
Pst I-linearized (replicative form III) .phi.X174 DNA, relaxed circular (replicative form II) .phi.X174 DNA, and single-stranded M13 DNA were used as targets for the in vitro integration of viral DNA. Target DNA was added to cytoplasmic extracts of intected SupT1 cells to a concentration of 10 μg/ml, and reaction mixtures were incubated at […]. Reactions, were stopped by the addition of SDS and proteinase K.
Cytoplasmic extracts prepared from SupT1 cells 4 hours after infection with HIV-1 were incubated with exogenously added target DNA under integration reaction conditions. Products of the reactions were analyzed by Southern blot hybridization. The time course of integration into linear .phi.X174 DNA target was determined. Target DNA was added to the extract and the reaction was stopped after 0,5,15,30, or 45 minutes of incubation at 37° C. (FIG. 11, lanes a-e, respectively). Purified linear viral DNA was incubated for 1 hour at 37° C. with cytoplasmic extract prepared from uninfected SupT1 cells (lane f). […] Arrows in the Figure indicate the positions of viral DNA products. L, linear viral DNA:I, integration product. Integration was detected by the shift of linear viral DNA on Southern blots from the characteristic 9.7-kilobase (kb) position to a position corresponding to viral DNA plus target DNA.

The subject of assay [2] is purified linear viral DNA. Nature of the assay: Circularization of purified linear viral DNA in cytoplasmic extracts of uninfected SupT1 cells. The following applies: 1 mM, 37° C., 45 min. As to the method:
Further evidence of a role for host proteins in the formation of the 1-LTR and simple 2-LTR circular forms of viral DNA was obtained by testing the ability of uninfected cell extracts to mediate the circularization of purfied viral DNA. Linear viral DNA was prepared from cytoplasmic extracts of uninfected cells by SDS-proteinase K treatment and phenol extraction. The purfied DNA was added to cytoplasmic extracts prepared form uninfected SupT1 cells, in the presence or absence of added ATP.
Linear viral DNA was purified from cytoplasmic extracts of cells 4 hours post-infection as described above. In FIG. 22, a purified linear viral DNA was added to cytoplasmic extracts from uninfected SupT1 cells and incubated at 37° C. for 45 minutes. The uninfected SupT1 cells used for the preparation of extracts were either untreated (lanes 3-11) or cultured in the presence of 10 ng/ml phorbol 12-myristate 13-acetate for six hours prior to extraction (lane 2). […] Lanes 2-11: reaction products following incubation of purified linear viral DNA in uninfected extracts containing 1 mM ATP (lanes 2 and 3), nothing added (lane 4), 1 mM dATP (lane 5), 1 mM UTP (lane 6), 1 mM CTP (lane 7), 1 mM GTP (lane 8), 1 mM ATPγS (lane 9), or 1 mM ADP (lane 10). Lane 11: uninfected SupT1 cell extract was treated with proteinase K for 10 minutes at 37° C., then linear viral DNA was added and incubation continued for 45 minutes. In FIG. 23, lanes 1, 2, 4 and 5: purified linear viral DNA was incubated with T4 DNA ligase (lane 1), T4 polynucleotide kinase and T4 DNA ligase (lane 2), Klenow fragment of E. coli DNA polymerase I and T4 DNA ligase […], or Klenow fragment, T4 polynucleotide kinase, and T4 DNA ligase (lane 4). Lanes 3 and 6: in vitro circularization reaction products generated in cell extracts, included as size standards. Lane 3: cytoplasmic extracts from infected cells were incubated with […] for 45 minutes; lane 6: purified linear viral DNA was incubated with cytoplasmic extract from uninfected SupT1 cells in the presence of 1 mM ATP for 45 minutes. The possibility that a host DNA ligase was responsible for the formation of the simple 2-LTR circles was examined by testing the ability of phage T4 ligase to catalyze the circularization of linear viral DNA. […] Restriction endonuclease analysis of the reaction products formed in the presence of both Klenow fragment and T4 DNA ligase confirmed the formation of new 2-LTR junctions (not shown). […] This observation is consistent with previous reports that linear viral DNA prepared from cells infected with the murine leukemia virus [Fujiwara and Mizuuchi, Cell, 54:497-504 (1988) and HIV-1 [Pauza, Virology, 179:886-887 (1990)] consists of a mixture of molecules that are either blunt-ended or recessed by two nucleotides at each 3'-terminus. The removal of the two terminal nucleotides is mediated by the viral integrase as a necessary step in the process of integration [Roth et al., Cell 58: 47-54 (1989)]. […] This would explain the requirement of DNA polymerase for the subsequent joining of the ends of viral DNA by DNA ligase.

The subject of assay [3] is linear viral DNA (circularization). As to the method: as §1, §2
Viral DNA present in cytoplasmic extracts was deproteinated by incubation with proteinase K (1 mg/ml)/10 mM EDTA/0.5% SDS for 1 hour at 55° C. Samples were extracted successively with phenol/chloroform [1:1 (vol/vol)] and chloroform. DNA was ethanol-precipitated, washed with 70% ethanol, resuspended in 10 mM Tris.HCI (pH 7.4), and treated with RNase A (20 μpg/ml)for 1 hour at […]. before analysis by agarose gel electrophoresis and Southern blotting.
as §3
Cell extracts were prepared from cells four to five hours after infection with HIV-1, using the above-described methods to yield fully functional viral preintegration complexes. […] In all cases, a HIV-1 LTR-containing DNA fragment was used as a hybridization probe. Therefore, only LTR-containing DNA fragments are detected. […] Lane 5: Unintegrated viral DNA prepared by Hirt extraction of SupT1 cells infected 24 hours earlier with concentrated HIV-1. […] Viral DNA was purified from extracts incubated with 1 mM ATP for 15 minutes (lanes 1 and 4), with 1 mM ATP for 45 minutes (lanes 3 and 6), or with 1 mM ATPγS for 45 minutes (lanes 2 and 5). Lanes 1-3: uncut viral DNA; lanes 4-6: viral DNA was cut with SalI prior to electrophorosis. Lane 7: linear viral DNA, prepared from untreated extracts was digested with SalI prior to electrophorosis. Lane 8: unintegrated viral DNA prepared by Hirt extraction of infected cells, as described with respect to FIG. 14, digested with SalI prior to electrophoresis. […] Lanes 1-3. Viral DNA prepared from extracts treated with 1 mM ATP for 15 minutes, 30 minutes and 45 minutes, respectively. Lane 4: Viral DNA prepared from extract treated with 1 mM ATPγS for 45 minutes. Lanes 5-7: products of reactions shown in lanes 1-3, respectively, digested with SalI and PstI prior to electrophoresis. Lane 8: SalI, PstI digestion of viral DNA prepared from extract treated with 1 mM ATP for 90 minutes. Lane 9: SalI, PstI digestion of reaction products shown in lane 4. Lane 10: SalI, PstI digestion of unintegrated viral DNA prepared by Hirt extraction of infected cells.

Like-named read-outs stand apart in the source and are kept apart here.

Turning to alkaline phosphatase, the “effect on the in vitro integration reaction” value in assay [1] (pretreatment of linear target DNA) is on record as “no effect on the in vitro integration reaction”.
Turning to `O=c1ccn([C@@H]2O[C@H](COP(=O)(O)OP(=O)(O)OP(=O)(O)O)[C@@H](O)[C@H]2O)c(=O)[nH]1` [UTP], in assay [2], the “1-LTR circles from purified linear viral DNA” value is on record as “able to induce the formation of 1-LTR circles” and the “2-LTR circles from purified linear viral DNA” value was “failed to induce the formation of detectable 2-LTR circles”. Also, in assay [3] (1 mM, 37° C., 45 min), the “induction of 1-LTR circular form” value was “induced the formation of only a small amount of the 1-LTR circular form” and the “induction of 2-LTR circles” value is “induced the formation of 2-LTR circles”.
Regarding `[Cl-].[Na+]` [NcCl], the “Relative activity, % of standard” value in assay [1] was 100 % of standard.
With `CC[C@@]1(O)C(=O)OCc2c1cc1n(c2=O)Cc2cc3ccccc3nc2-1` [camptothecin], the inhibition of integration result was “about 50%” in assay [1] (5 μM) and “about 100%” in assay [1] (50 μM).
For `Nc1ncnc2c1ncn2[C@H]1C[C@H](O)[C@@H](COP(=O)(O)OP(=O)(O)OP(=O)(O)O)O1` [dATP, deoxyadenosine triphosphate], in assay [2], the “1-LTR circles from purified linear viral DNA” value was “able to induce the formation of 1-LTR circles” and the “2-LTR circles from purified linear viral DNA” value was “failed to induce the formation of detectable 2-LTR circles”. Moreover, the “induction of both circular forms” value in assay [3] (1 mM, 37° C., 45 min) is on record as “induced both circular forms with an efficiency comparable to ATP”.
Consider `Nc1ccn([C@@H]2O[C@H](COP(=O)(O)OP(=O)(O)OP(=O)(O)O)[C@@H](O)[C@H]2O)c(=O)n1` [CTP, cytosine triphosphate], for which, in assay [2], the “1-LTR circles from purified linear viral DNA” value is listed as “able to induce the formation of 1-LTR circles” and the “2-LTR circles from purified linear viral DNA” value is given as “failed to induce the formation of detectable 2-LTR circles”. Besides, in assay [3], the “induction of 1-LTR circular form” value is “induced the formation of only a small amount of the 1-LTR circular form” and the “induction of 2-LTR circles” value was “induced the formation of 2-LTR circles”.
Take `[Cl-].[K+]` [KCl]: the “Relative activity, % of standard” value in assay [1] (KCl 100 mM, target DNA 10 μg/ml) is listed as 85 % of standard. In assay [1] (KCl 250 mM or greater), the “detectable integration in vitro” value was “completely abolished detectable integration”. Moreover, the “Relative activity, % of standard” value in assay [1] (KCl 250 mM, target DNA 10 μg/ml) is 0 % of standard. Moreover, in assay [3] (1 mM ATP, 37° C., 90 min), the “KCl concentration of most efficient formation of 1-LTR circles” value stood at 125 mM. In assay [3] (100 mM KCl, 1 mM ATP, 90 min), the “circular forms at KCl concentration” value is given as 1-LTR circles were formed almost exclusively. Besides, the “circular forms at higher salt concentrations” value in assay [3] (higher KCl concentrations (lane 6: 250 mM), 1 mM ATP, 90 min) is on record as “most entirely of the 2-LTR form”. Also, in assay [3] (table), the “1-LTR [KCl] optimum” value is listed as 125 mM and the “Autointegration [KCl] optimum” value was 150 to 175 mM.
In the case of `O=C(O)CN(CCN(CC(=O)O)CC(=O)O)CC(=O)O` [EDTA], the “detectable integration in vitro” value in assay [1] (1 mM EDTA, buffer devoid of added MgCl2) is on record as “absence of detectable integration”. For the same compound, the “Relative activity, % of standard” value in assay [1] (-Mg2+/+EDTA, target DNA 10 μg/ml) was 0 % of standard. Besides, the detectable circle formation entry in assay [3] is “abolished detectable circle formation”.
